Data reported in patent US20190015385A1, “VITAMIN E PHOSPHATE OR ACETATE FOR USE IN THE TREATMENT AND PREVENTION OF BIOFILM INFECTIONS” (priority 2016, published 2019).

Legend:
P. aeruginosa [1] = experiment: MIC and MBC, broth microdilution (Example 3); type: cell-based, Pseudomonas aeruginosa; conditions: P. aeruginosa strains
Description: (§1) This study used clinically relevant strains isolated from patients with prosthetic joint infections at the Microbiology Laboratory of the IRCCS Galeazzi Orthopaedic institute (Italy). In particular, the following were selected: strains of methicillin-resistant Staphylococcus epidermidis, of methicillin-resistant Staphylococcus aureus and of Pseudomonas aeruginosa. These strains were identified beforehand by means of biochemical assays (VITEK® 2 Compact, bioMérieux, Marcy l'Etoile, France) and stored at −80° C. prior to the analysis. Before beginning the study, all strains were screened to assess their ability to produce biofilms, according to the spectrophotometric assay described by Christensen et al. (J Clin Microbiol 1985; 22: 996-1006).
(§2) The bacteriostatic and bactericidal activity of vitamin E acetate and vitamin E phosphate against the above-mentioned bacterial strains was assessed by measuring the minimum inhibitory concentration (MIC) and the minimum bactericidal concentration (MBC). MIC, defined as the lowest concentration capable of inhibiting bacterial growth, was determined using the broth microdilution method according to EUCAST guidelines (http://www.eucast.org/clinical_breakpoints/).
(§3) In short, a suspension in Brain Heart Infusion Broth (BHI; Biomérieux, Marci l'Etoile, France) was prepared for each bacterial strain, with an optical density of 0.5 McFarland (1.5×10^8 CFU/ml). The P. acnes broth was supplemented with 5% defibrinated sheep blood (Liofilchem, Roseto degli Abruzzi, Italy). After a concentration of 10^5 UFC/ml was obtained using appropriate dilutions, each suspension was inoculated in a 96-well microtitre plate containing a two-fold serial dilution of vitamin E acetate (VitE-Ac) and vitamin E phosphate. The controls were performed by inoculating bacterial suspensions in BHI alone. […] After incubation at adequate conditions, MBC was read as the lowest concentration capable of killing 99.9% of the initial inoculum.

S. epidermidis [2] = experiment: Anti-adhesion activity on coated titanium disks, CFU count (Example 3); type: cell-based, Staphylococcus epidermidis; conditions: 5 mg/cm^2 coating, 30, 60 and 120 minutes
Description: (§4) Sterile disks of sandblasted titanium with a diameter of 25 mm and a thickness of 5 mm (Adler Ortho, Cormano, Italy) were used as the substrate for the formation of biofilms. The disks were coated with sub-inhibitory concentrations of vitamin E acetate (5 mg/cm^2) or vitamin E phosphate (5 mg/cm^2). The concentrations were selected based on the MIC results. Uncoated disks were used as negative controls. The anti-adhesion activity of vitamin E was assessed against a representative strain for each species. An overnight bacteria culture was resuspended in Brain Heart Infusion Broth (BHI; Biomérieux) at a density of 1.0×10^7 CFU/ml for each strain, and 400 microliters of microbial suspension were inoculated on coated and uncoated disks. The test was performed in triplicate for each strain. After 30, 60 and 120 minutes of incubation, the disks were washed twice with a sterile saline solution to eliminate non-adherent bacteria. The disks were then immersed in 5 ml of a 0.1 w/v % dithiothreitol solution (DTT, Sigma-Aldrich, Milan, Italy) and mechanically stirred for 15 minutes at room temperature. Suitable dilutions of the fluids obtained were inoculated on Tryptic Soy Agar (TSA, Merck) and incubated at 37° C. in an aerobic atmosphere for 24 hours for the CFU count.

S. aureus [3] = experiment: as above; type: cell-based, Staphylococcus aureus; conditions: 5 mg/cm^2 coating, 30, 60 and 120 minutes
Description: as §4

P. acnes = experiment: MIC and MBC, broth microdilution (Example 3); type: cell-based
Description: as §3, with “MIC, defined as the lowest concentration capable of inhibiting bacterial growth, was determined using the broth microdilution method according to EUCAST guidelines (http://www.eucast.org/clinical_breakpoints/). In short,” for “In short,”, “Infusion Broth ([…], France) was” for “Infusion Broth (BHI; Biomérieux, Marci l'Etoile, France) was”, “sheep blood ([…] Abruzzi, Italy).” for “sheep blood (Liofilchem, Roseto degli Abruzzi, Italy).”

S. epidermidis [4] = experiment: MIC and MBC, broth microdilution (Example 3); type: cell-based, Staphylococcus epidermidis; conditions: S. epidermidis strains
Description: as §1, §2, §3

S. aureus [5] = experiment: MIC and MBC, broth microdilution (Example 3); type: cell-based, Staphylococcus aureus; conditions: S. aureus strains
Description: as §1, §2, §3

P. aeruginosa [6] = experiment: Anti-adhesion activity on coated titanium disks, CFU count (Example 3); type: cell-based, Pseudomonas aeruginosa; conditions: 5 mg/cm^2 coating, 30, 60 and 120 minutes
Description: as §4

[7] = tested on: methicillin-resistant Staphylococcus aureus; experiment: Biofilm on coated titanium disks, CFU count (Example 2); type: cell-based; conditions: S. aureus, vitamin E acetate 5 mg/cm^2, methylene blue 20 μg/cm^2
Description: This study used clinically relevant strains isolated from patients with prosthetic joint infections at the Microbiology Laboratory of the IRCCS Galeazzi Orthopaedic Institute (Italy). In particular, the following were selected: a strain of methicillin-resistant Staphylococcus epidermidis, a strain of methicillin-resistant Staphylococcus aureus and a strain of Pseudomonas aeruginosa. These strains were identified beforehand by means of biochemical assays (VITEK® 2 Compact, bioMérieux, Marcy l'Etoile, France) and stored at −80° C. prior to the analysis. Before beginning the study, all strains underwent testing to assess their ability to produce biofilms according to the spectrophotometric assay described by Christensen et al. (J Clin Microbiol 1985; 22: 996-1006).
Sterile disks of sandblasted titanium with a diameter of 25 mm and a thickness of 5 mm (Adler Ortho, Cormano, Italy) were used as the substrate for the formation of biofilms. The disks were coated with sub-inhibitory concentrations of vitamin E acetate (5 mg/cm^2) or vitamin E acetate with the addition of methylene blue (20 μg/cm^2). […] Uncoated disks were used as negative controls. Subsequently, an overnight bacteria culture was resuspended in Brain Heart Infusion Broth (BHI; Biomérieux) at a density of 1.5×10^8 CFU/ml for each strain, and 200 microliters of microbial suspension were inoculated in sterile polystyrene plates with 6 wells containing coated and uncoated disks and 4.8 ml of BHI. The plates were incubated at 37° C. in an aerobic atmosphere for 24 and 48 hours. The test was performed in triplicate for each strain.
Upon completion of the biofilm incubation time, the disks were washed twice with a sterile saline solution to eliminate non-adherent bacteria. The disks were then immersed in 5 ml of a 0.1 w/v % dithiothreitol solution (DTT, Sigma-Aldrich, Milan, Italy) and mechanically stirred for 15 minutes at room temperature. Suitable dilutions of the fluids obtained were inoculated on Tryptic Soy Agar (TSA, Merck) and incubated at 37° C. in an aerobic atmosphere for 24 hours for the CFU count.

[8] = kills 99.9% of the initial inoculum

CC(=O)Oc1c(C)c(C)c2c(c1C)CCC(C)(CCC[C@H](C)CCC[C@H](C)CCCC(C)C)O2 (stereo partly drawn) [Vitamin E acetate, α-tocopherol acetate]
>200 mg/mL: MIC range (P. aeruginosa [1]; 24 hours) | MBC range (P. aeruginosa [1]; [8]) | MIC range (P. acnes; 48 hours, broth with 5% defibrinated sheep blood) | MBC range (P. acnes; [8]) | MIC range (S. epidermidis [4]; 24 hours) | MBC range (S. epidermidis [4]; [8]) | MIC range (S. aureus [5]; 24 hours) | MBC range (S. aureus [5]; [8])
significant decrease: decrease in adhesion (in words) (S. epidermidis [2]) | decrease in adhesion (in words) (S. aureus [3])
No effect: decrease in adhesion (in words) (P. aeruginosa [6])
significant: biofilm reduction with respect to the controls (in words) ([7]; 24 hours) | biofilm reduction with respect to the controls (in words) ([7]; 48 hours)
